Assay results from patent US9493781B2, “Synthetic brassica-derived chloroplast transit peptides” (DOW AGROSCIENCES LLC, priority 2012, dated 2016).

How the values were obtained:
Zea mays = assay: Post-emergence glyphosate tolerance of dgt-28 transformed T0 corn; assay type: in vivo
Protocol: Herbicide Tolerance in dgt-28 Transformed Corn. Zea mays dgt-28 transformation events (T0) were allowed to acclimate in the greenhouse and were grown until plants had transitioned from tissue culture to greenhouse growing conditions (i.e., 2-4 new, normal looking leaves had emerged from the whorl). Plants were grown at 27° C. under 16 hour light: 8 hour dark conditions in the greenhouse. The plants were then treated with commercial formulations of DURANGO DMA™ (containing the herbicide glyphosate) with the addition of 2% w/v ammonium-sulfate. Herbicide applications were made with a track sprayer at a spray volume of 187 L/ha, 50-cm spray height. T0 plants were sprayed with a range of glyphosate from 280-4480 g ae/ha glyphosate, which is capable of significant injury to untransformed corn lines. A lethal dose is defined as the rate that causes >95% injury to the B104 inbred.
Post-Emergence Herbicide Tolerance in dgt-28 Transformed T0 Corn. T0 events of dgt-28 linked with TraP4, TraP5, TraP8 and TraP23 were generated by Agrobacterium transformation and were allowed to acclimate under controlled growth chamber conditions until 2-4 new, normal looking leaves had emerged from the whorl. Plants were assigned individual identification numbers and sampled for copy number analyses of both dgt-28 and aad-1. Based on copy number analyses, plants were selected for protein expression analyses. […]

[1] = tested on: tobacco (cv. Petit Havana); assay: Postemergence glyphosate tolerance of dgt-28 transformed T1 and T2 tobacco; assay type: in vivo; details: 14 DAT, 2240 g ae/ha glyphosate (DURANGO DMA)
Text: Postemergence herbicide tolerance in dgt-28 transformed T1 tobacco. T1 resistant plants from each event used in the progeny testing were given unique identifiers and sampled for zygosity analyses of the dgt-28 gene. Zygosity data were used to assign 2 hemizygous and 2 homozygous replicates to each rate of glyphosate applied allowing for a total of 4 replicates per treatment. These plants were compared against wildtype Petite havana tobacco. All plants were sprayed with a track sprayer set at 187 L/ha. The plants were sprayed from a range of 560-4480 g ae/ha DURANGO DMA™. All applications were formulated in water with the addition of 2% w/v ammonium sulfate (AMS). Plants were evaluated at 7 and 14 days after treatment. Plants were assigned an injury rating with respect to overall visual stunting, chlorosis, and necrosis. The T1 generation is segregating, so some variable response is expected due to difference in zygosity.
Rates of DURANGO DMA™ ranging from 420-3360 g ae/ha glyphosate were applied to 2-3 leaf tobacco as previously described.

## O=C(O)CNCP(=O)(O)O [glyphosate]
Zea mays
  Glyphosate rate that controlled non-transformed plants: ≥ 280 g ae/ha

B1: TraP23: chloroplast transit peptide TraP23 v2, SEQ ID NO:39 (protein)
chain: MAQINKSANGVRNASLISNFSNTRQAKSPFSLSCGTRLKNSSRGLKKVAVRLIGSRVKVSAS
modifications: Chloroplast Transit Peptide
[1]
  % Injury Ave: 9.5%
